Measured values taken from US6355799B1, “Substituted benzene compounds, process for their preparation, and herbicidal and defoliant compositions containing them” (ISK Americas Incorporated, priority 1997, dated 2002).

Tests used:
Type in all cases: in vivo
[1] = system: redroot pigweed (Amaranthus retroflexus, AMARE); assay: Pre-emerge test, greenhouse herbicide activity screening; settings: pre-emerge, rated 14 days after application, 0 = no damage, 100 = complete death
In short: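 Sandy loam pots; pre-emerge: sown 1 d pre-spray, surface-watered after, then bottom-watered. Post-emerge: sown 8–21 d before, 2–3 leaf stage, + 0.25% v/v NIS, bottom-watered. Acetone, 187 l/ha track spray, 15–1000 g ai/ha. 0–100 injury score, day 14.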

[2] = system: barnyardgrass (Echinochloa crus-galli, ECHCG); assay: as above; settings: pre-emerge, rated 14 days after application, 0 = no damage, 100 = complete death
In short: (§1)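 Plants grown in 10 cm pots of sandy loam mix received acetone-dissolved compounds through a moving flat-fan nozzle. Doses ranged from 15 to 1000 g ai/ha. Pre-emerge pots were seeded one day earlier, post-emerge pots 8–21 days earlier. Fourteen days on, each pot was graded 0–100 for damage.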

[3] = system: green foxtail (Setaria viridis, SETVI); assay: as above; settings: pre-emerge, rated 14 days after application, 0 = no damage, 100 = complete death
In short: as §1

[4] = system: ivyleaf morningglory (Ipomoea hederacea, IPOHE); assay: as above; settings: pre-emerge, rated 14 days after application, 0 = no damage, 100 = complete death
In short: as §1

[5] = system: johnsongrass (Sorghum halepense, SORHA); assay: as above; settings: pre-emerge, rated 14 days after application, 0 = no damage, 100 = complete death
In short: as §1

[6] = system: lambsquarters (Chenopodium album, CHEAL); assay: as above; settings: pre-emerge, rated 14 days after application, 0 = no damage, 100 = complete death
In short: as §1

[7] = system: large crabgrass (Digitaria sanguinalis, DIGSA); assay: as above; settings: pre-emerge, rated 14 days after application, 0 = no damage, 100 = complete death
In short: as §1

[8] = system: sicklepod (Cassia obtusifolia, CASOB); assay: as above; settings: pre-emerge, rated 14 days after application, 0 = no damage, 100 = complete death
In short: as §1

[9] = system: velvetleaf (Abutilon theophrasti, ABUTH); assay: as above; settings: pre-emerge, rated 14 days after application, 0 = no damage, 100 = complete death
In short: as §1

[10] = system: field corn (Zea mays L., var. Dekalb 535, CORN); assay: Pre-emerge test, crop safety; settings: pre-emerge, rated 14 days after application, 0 = no damage, 100 = complete death
In short: (§2)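 Herbicidal damage is scored 0 (none) to 100 (complete plant death) two weeks after a simulated field spray. Rates span 15–1000 g ai/ha, delivered in acetone at 187 l/ha. For post-emergence treatments, plants have 2–3 leaves and the spray carries 0.25% v/v non-ionic surfactant.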

[11] = system: upland rice (Oryza sp., var. Tebonnet, RICE); assay: Pre-emerge test, crop safety; settings: pre-emerge, rated 14 days after application, 0 = no damage, 100 = complete death
In short: as §2

[12] = system: barnyardgrass (Echinochloa crus-galli, ECHCG); assay: Post-emerge test, greenhouse herbicide activity screening; settings: phytotoxicity rating 0-100 (0 no damage, 100 complete death), 14 days after application
In short: as §2

[13] = system: common ragweed (Ambrosia artemisizfolia L., AMBEL); assay: as above; settings: 250 g ai/ha; phytotoxicity rating 0-100 (0 no damage, 100 complete death), 14 days after application
In short: as §2

[14] = system: green foxtail (Setaria viridis, SETVI); assay: as above; settings: phytotoxicity rating 0-100 (0 no damage, 100 complete death), 14 days after application
In short: as §2

[15] = system: ivyleaf morningglory (Ipomoea hederacea, IPOHE); assay: as above; settings: phytotoxicity rating 0-100 (0 no damage, 100 complete death), 14 days after application
In short: as §2

[16] = system: johnsongrass (Sorghum halepense, SORHA); assay: as above; settings: phytotoxicity rating 0-100 (0 no damage, 100 complete death), 14 days after application
In short: as §2

[17] = system: lambsquarters (Chenopodium album, CHEAL); assay: as above; settings: phytotoxicity rating 0-100 (0 no damage, 100 complete death), 14 days after application
In short: as §2

[18] = system: large crabgrass (Digitaria sanguinalis, DIGSA); assay: as above; settings: phytotoxicity rating 0-100 (0 no damage, 100 complete death), 14 days after application
In short: as §2

[19] = system: redroot pigweed (Amaranthus retroflexus, AMARE); assay: as above; settings: phytotoxicity rating 0-100 (0 no damage, 100 complete death), 14 days after application
In short: as §2

[20] = system: sicklepod (Cassia obtusifolia, CASOB); assay: as above; settings: phytotoxicity rating 0-100 (0 no damage, 100 complete death), 14 days after application
In short: as §2

[21] = system: velvetleaf (Abutilon theophrasti, ABUTH); assay: as above; settings: phytotoxicity rating 0-100 (0 no damage, 100 complete death), 14 days after application
In short: as §2

[22] = system: field corn (Zea mays L., var. Dekalb 535, CORN); assay: Post-emerge test, crop safety; settings: phytotoxicity rating 0-100 (0 no damage, 100 complete death), 14 days after application
In short: (§3)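 Each test used a mechanized track sprayer delivering 187 l/ha of acetone solution at 15–1000 g ai/ha. Post-emerge foliage at 2–3 leaves was treated with added 0.25% v/v non-ionic surfactant and bottom-watered only. Injury was assessed on day 14, where 100 means total kill.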

[23] = system: upland rice (Oryza sp., var. Tebonnet, RICE); assay: Post-emerge test, crop safety; settings: phytotoxicity rating 0-100 (0 no damage, 100 complete death), 14 days after application
In short: as §3

COc1c(Cl)cc(F)c(-n2c(=O)cc(C(F)(F)F)n(C)c2=O)c1NC(=O)C1CCCCC1 [2-19]
30: Post-emerge Herbicidal Activity AMBEL [13] | Post-emerge Herbicidal Activity SETVI ([14]; 250 g ai/ha)
50: Pre-emerge Herbicidal Activity ECHCG (phytotoxicity rating, scale 0-100) ([2]; 250 g ai/ha) | Post-emerge Herbicidal Activity CHEAL ([17]; 63 g ai/ha) | Post-emerge Herbicidal Activity CHEAL ([17]; 250 g ai/ha)
10: Pre-emerge Herbicidal Activity IPOHE (phytotoxicity rating, scale 0-100) ([4]; 63 g ai/ha) | Pre-emerge Herbicidal Activity CASOB (phytotoxicity rating, scale 0-100) ([8]; 250 g ai/ha) | Pre-emerge crop damage RICE (phytotoxicity rating, scale 0-100) ([11]; 63 g ai/ha) | Post-emerge Herbicidal Activity CASOB ([20]; 250 g ai/ha)
60: Pre-emerge Herbicidal Activity SORHA (phytotoxicity rating, scale 0-100) ([5]; 250 g ai/ha) | Pre-emerge crop damage RICE (phytotoxicity rating, scale 0-100) ([11]; 250 g ai/ha)
20: Pre-emerge Herbicidal Activity SETVI (phytotoxicity rating, scale 0-100) ([3]; 63 g ai/ha) | Post-emerge Herbicidal Activity RICE (crop damage) ([23]; 250 g ai/ha)
90: Pre-emerge Herbicidal Activity ABUTH (phytotoxicity rating, scale 0-100) ([9]; 63 g ai/ha) | Post-emerge Herbicidal Activity ABUTH ([21]; 63 g ai/ha)
5: Pre-emerge crop damage CORN (phytotoxicity rating, scale 0-100) ([10]; 63 g ai/ha)
80: Pre-emerge Herbicidal Activity AMARE (phytotoxicity rating, scale 0-100) ([1]; 63 g ai/ha)
70: Post-emerge Herbicidal Activity IPOHE ([15]; 63 g ai/ha)
0: Pre-emerge Herbicidal Activity ECHCG (phytotoxicity rating, scale 0-100) ([2]; 63 g ai/ha) | Pre-emerge Herbicidal Activity SORHA (phytotoxicity rating, scale 0-100) ([5]; 63 g ai/ha) | Pre-emerge Herbicidal Activity CASOB (phytotoxicity rating, scale 0-100) ([8]; 63 g ai/ha) | Post-emerge Herbicidal Activity ECHCG ([12]; 63 g ai/ha) | Post-emerge Herbicidal Activity ECHCG ([12]; 250 g ai/ha) | Post-emerge Herbicidal Activity SETVI ([14]; 63 g ai/ha) | Post-emerge Herbicidal Activity SORHA ([16]; 63 g ai/ha) | Post-emerge Herbicidal Activity SORHA ([16]; 250 g ai/ha) | Post-emerge Herbicidal Activity DIGSA ([18]; 63 g ai/ha) | Post-emerge Herbicidal Activity DIGSA ([18]; 250 g ai/ha) | Post-emerge Herbicidal Activity CASOB ([20]; 63 g ai/ha) | Post-emerge Herbicidal Activity CORN (crop damage) ([22]; 63 g ai/ha) | Post-emerge Herbicidal Activity CORN (crop damage) ([22]; 250 g ai/ha) | Post-emerge Herbicidal Activity RICE (crop damage) ([23]; 63 g ai/ha)
75: Post-emerge Herbicidal Activity AMARE ([19]; 250 g ai/ha)
40: Pre-emerge Herbicidal Activity DIGSA (phytotoxicity rating, scale 0-100) ([7]; 63 g ai/ha) | Pre-emerge crop damage CORN (phytotoxicity rating, scale 0-100) ([10]; 250 g ai/ha) | Post-emerge Herbicidal Activity AMARE ([19]; 63 g ai/ha)
100: Pre-emerge Herbicidal Activity AMARE (phytotoxicity rating, scale 0-100) ([1]; 250 g ai/ha) | Pre-emerge Herbicidal Activity SETVI (phytotoxicity rating, scale 0-100) ([3]; 250 g ai/ha) | Pre-emerge Herbicidal Activity IPOHE (phytotoxicity rating, scale 0-100) ([4]; 250 g ai/ha) | Pre-emerge Herbicidal Activity CHEAL (phytotoxicity rating, scale 0-100) ([6]; 250 g ai/ha) | Pre-emerge Herbicidal Activity DIGSA (phytotoxicity rating, scale 0-100) ([7]; 250 g ai/ha) | Pre-emerge Herbicidal Activity ABUTH (phytotoxicity rating, scale 0-100) ([9]; 250 g ai/ha) | Post-emerge Herbicidal Activity IPOHE ([15]; 250 g ai/ha) | Post-emerge Herbicidal Activity ABUTH ([21]; 250 g ai/ha)
95: Pre-emerge Herbicidal Activity CHEAL (phytotoxicity rating, scale 0-100) ([6]; 63 g ai/ha)
